The values that follow come from PMC6529438 (2019).

Holding throughout (test): graphene oxide FRET fluorescence recovery with DNase I amplification
Conditions in all cases: 5 mM Mg2+, 15 mM Na+, 20 mM Tris-HCl, 0.001% PEG 900, pH 8.0

For assay [1], the system named is Cy5-modified ampicillin aptamer (P3) (DNA, aptamer) GCGGGCGGTTGTATAGCGG
In assay [2] the test system is Cy3-modified sulfadimethoxine aptamer (P1) (DNA, aptamer) GAGGGCAACGAGTGTTTATAGA
The test system of assay [3] is FAM-modified kanamycin aptamer (P2) (DNA, aptamer) TGGGGGTTGAGGCTAAGCCGA
The mark [4] stands for this setting: 10-500 ng/mL, room temperature, then 37 °C with DNase I.
Setting [5] is: 500 ng/mL, mixed aptamers, very weak signal change.

On to `CC1(C)S[C@@H]2[C@H](NC(=O)[C@H](N)c3ccccc3)C(=O)N2[C@H]1C(=O)O`, for which the binding entry is on record as “yes” in assay [1] (setting [4]); “no” in assay [2] (500 ng/mL, with kanamycin none, alone weak signal change); “weak” in assay [3] (500 ng/mL, mixed aptamers, weak signal change only).
Consider `NC[C@H]1O[C@H](O[C@H]2[C@H](O)[C@@H](O[C@H]3O[C@H](CO)[C@@H](O)[C@H](N)[C@H]3O)[C@H](N)C[C@@H]2N)[C@H](O)[C@@H](O)[C@@H]1O`, for which the binding result in assay [2] (500 ng/mL kanamycin with 500 ng/mL ampicillin, mixed aptamers) was “no”; in assay [3] (setting [4]), “yes”.
On to `COc1cc(NS(=O)(=O)c2ccc(N)cc2)nc(OC)n1`, for which the binding result is “no” in assay [1] (setting [5]), “yes” in assay [2] (setting [4]) and “no” in assay [3] (setting [5]).
